Assay results published in patent US7335661B2, “Fungicidal mixtures” (BASF Aktiengesellschaft, priority 2002, dated 2008).

Experiments:
[1] = system: Puccinia recondita; assay: Curative activity against wheat leaf rust caused by Puccinia recondita; assay type: in vivo; conditions: individual active compound, 7 days
Protocol: (§1) The active compounds, separately or jointly, were prepared as a stock solution with 0.25% by weight of active compound in acetone or DMSO. 1% by weight of the emulsifier Uniperol® EL (wetting agent having emulsifying and dispersing action based on ethoxylated alkylphenols) was added to this solution, and the solution was diluted with water to the desired concentration.
Leaves of potted wheat seedlings of the cultivar “Kanzler” were dusted with spores of leaf rust (Puccinia recondita). For 24 hours, the pots were then placed at 20-22_C in a chamber with high atmospheric humidity (90-95%). During this time, the spores germinated and the germinal tubes penetrated into the leaf tissue. The next day, the infected plants were sprayed to runoff point with an aqueous suspension having the concentration of active compounds stated below. The suspension or emulsion was prepared as described above. After the spray coating had dried on, the test plants were cultivated in a greenhouse at 20-22_C and 65-70% relative atmospheric humidity for 7 days. The extent of rust fungus development on the leaves was then determined.
(§2) Evaluation was carried out by determining the infected leaf areas as a percentage. These percentages were converted into efficacies. The efficacy (W) was calculated as follows using Abbot's formula: W=(1−a/b)·100 • a corresponds to the fungal infection of the treated plants in % and • b corresponds to the fungal infection of the untreated (control) plants in %
(§3) An efficacy of 0 means that the infection level of the treated plants corresponds to that of the untreated control plants; an efficacy of 100 means that the treated plants were not infected.
(§4) The expected efficacies of the mixtures of the active compounds were determined using Colby's formula [R. S. Colby, Weeds 15, 20-22 (1967)] and compared with the observed efficacies. Colby's formula: E=x+y−x·y/100 • E expected efficacy, expressed as % of the untreated control, when using the mixture of the active compounds A and B at the concentrations a and b • x efficacy, expressed as % of the untreated control, when using active compound A at a concentration a • y efficacy, expressed as % of the untreated control, when using active compound B at a concentration b

[2] = system: Botrytis cinerea; assay: Activity against gray mold on bellpepper leaves caused by Botrytis cinerea, protective application; assay type: in vivo; conditions: individual active compound, bellpepper seedlings, 5 days
Protocol: as §1, §2, §3, §4
Bellpepper seedlings of the cultivar “Neusiedler Ideal Elite” were, after 4-5 leaves were well developed, sprayed to runoff point with an aqueous suspension having the active compound concentration stated below. The next day, the treated plants were inoculated with a spore suspension of Botrytis cinerea which contained 1.7×10^6 spores/ml in a 2% strength aqueous biomalt solution. The test plants were then placed in a climatized chamber at 22-24_C and high atmospheric humidity. After 5 days, the extent of the fungus development on the leaves could be determined visually in %.
Evaluation was carried out analogously to example 1.

[3] = 4 ppm in the spray liquor, wheat seedlings cv. Kanzler

Structure (SMILES) | Efficacy in % of the untreated control ([1]; 0.25 ppm in the spray liquor, wheat seedlings) [%] | Efficacy in % of the untreated control [1, 3] [%] | Efficacy in % of the untreated control ([2]; 0.25 ppm in the spray liquor) [%] | Efficacy in % of the untreated control ([2]; 1 ppm in the spray liquor) [%] | Efficacy in % of the untreated control ([1]; 1 ppm in the spray liquor, wheat seedlings) [%] | Efficacy in % of the untreated control ([2]; 4 ppm in the spray liquor) [%]
O=C(Nc1ccccc1-c1ccc(Cl)cc1)c1cccnc1Cl [II-5, boscalid, reference compound] | 0 | 0 | 0 | 0 |  | 
CC1CCN(c2c(-c3c(F)cc(F)cc3F)c(Cl)nc3ncnn23)CC1 [I, 5-chloro-7-(4-methylpiperidin-1-yl)-6-(2,4,6-trifluorophenyl)-[1,2,4]triazolo[1,5-a]pyrimidine] |  | 56 | 0 | 37 | 0 | 68
